Ends that are not written are not given here.
Assays:
[1] = Electronic tongue analysis (Taste-Sensing System SA 402B); design: unit not given here; conditions: reference solution 30 mM KCl + 0.3 mM tartaric acid as baseline, first measurement excluded; for Umami: sensor AAE; for Umami / Bitter / Sweet: detection threshold 0, room temperature; for Umami / Bitter / Sour / Salty: four replicates; for Sour: detection threshold -13, room temperature; for Salty: detection threshold -6, room temperature; for Sweet: measured five times
Summary of the method: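 Samples were tested at 0.1 and 1.0 mg/mL on an SA 402B e-tongue fitted with sourness, saltiness, bitterness, sweetness and umami sensors, with 30 mM KCl/0.3 mM tartaric acid as reference and baseline. Thresholds were −13 for sour, −6 for salty and 0 for the rest. Runs at room temperature: four replicates, five for sweetness, first reading discarded.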

[2] = system: human bronchial epithelial cells (BEAS-2B)
[3] = system: human embryonic kidney cells (HEK293T)
[4] = system: human pancreatic ductal epithelial cells (HPNE)
[5] = system: human umbilical vein endothelial cells (HUVEC)
Description: The cytotoxicity of 73 synthetic peptides was evaluated using four human cell lines: human pancreatic ductal epithelial cells (HPNE), human embryonic kidney cells (HEK293T), human umbilical vein endothelial cells (HUVEC), and human bronchial epithelial cells (BEAS-2B). When cell density reached 70% confluence, the complete culture medium was replaced with serum-free maintenance medium, and peptides were added at a final concentration of 100 μM for 36 h. Control groups received only serum-free maintenance medium without peptides. Cell proliferation was assessed using the CCK-8 assay kit (Solarbio, CA1210) according to the manufacturer’s instructions.

| Substance | Umami ([1]; peptide 0.1 mg/mL) | Umami ([1]; peptide 1 mg/mL) | Bitter ([1]; sensor C00, peptide 0.1 mg/mL) | Bitter ([1]; sensor C00, peptide 1 mg/mL) | Sour ([1]; sensor CA0, peptide 0.1 mg/mL) | Sour ([1]; sensor CA0, peptide 1 mg/mL) | Salty ([1]; sensor CT0, peptide 0.1 mg/mL) | Salty ([1]; sensor CT0, peptide 1 mg/mL) | Sweet ([1]; sensor GL1, peptide 0.1 mg/mL) | Sweet ([1]; sensor GL1, peptide 1 mg/mL) | Average cell viability, BEAS-2B [2] | Cell viability, BEAS-2B, Data1 [2] | Cell viability, BEAS-2B, Data2 [2] | Cell viability, BEAS-2B, Data3 [2] | Average cell viability, HEK293T [3] | Cell viability, HEK293T, Data1 [3] | Cell viability, HEK293T, Data2 [3] | Cell viability, HEK293T, Data3 [3] | Average cell viability, HPNE [4] | Cell viability, HPNE, Data1 [4] | also measured |
| --- | --- | --- | --- | --- | --- | --- | --- | --- | --- | --- | --- | --- | --- | --- | --- | --- | --- | --- | --- | --- | --- |
| SEGIQ [TaPep70] | 1.63 | -4.00 | 7.38 | 3.77 | -3.33 | 10.04 | -20.29 | 7.83 | 6.55 | -3.62 | 104.32 | 109.87 | 102.79 | 100.30 | 99.37 | 100.88 | 96.25 | 100.98 | 105.19 | 112.61 | Cell viability, HPNE, Data2 [4]: 102.83; Cell viability, HPNE, Data3 [4]: 100.13; Average cell viability, HUVEC [5]: 107.56; Cell viability, HUVEC, Data1 [5]: 113.68; Cell viability, HUVEC, Data2 [5]: 110.32; Cell viability, HUVEC, Data3 [5]: 98.67 |
| ANGPE [TaPep69] | 1.23 | -4.62 | 7.32 | 3.75 | -2.38 | 11.54 | -19.29 | 9.06 | 5.65 | -4.24 | 106.78 | 116.65 | 94.82 | 108.87 | 99.97 | 100.13 | 102.30 | 97.48 | 101.93 | 107.52 | Cell viability, HPNE, Data2 [4]: 97.94; Cell viability, HPNE, Data3 [4]: 100.33; Average cell viability, HUVEC [5]: 102.58; Cell viability, HUVEC, Data1 [5]: 91.72; Cell viability, HUVEC, Data2 [5]: 108.65; Cell viability, HUVEC, Data3 [5]: 107.37 |
| SLEYEFK [TaPep38] | 2.66 | -3.92 | 7.67 | 3.12 | -5.92 | 9.17 | -19.89 | 10.85 | 7.68 | -5.11 | 103.09 | 93.12 | 112.36 | 103.79 | 98.90 | 94.16 | 101.26 | 101.26 | 96.57 | 86.36 | Cell viability, HPNE, Data2 [4]: 94.14; Cell viability, HPNE, Data3 [4]: 109.22; Average cell viability, HUVEC [5]: 107.74; Cell viability, HUVEC, Data1 [5]: 112.64; Cell viability, HUVEC, Data2 [5]: 110.32; Cell viability, HUVEC, Data3 [5]: 100.27 |
| SVLEFS [TaPep52] | 2.84 | -2.08 | 7.49 | 4.10 | -6.24 | 5.72 | -20.56 | 3.13 | 9.54 | -1.51 | 105.65 | 105.38 | 103.19 | 108.37 | 99.31 | 102.87 | 97.95 | 97.10 | 109.12 | 112.31 | Cell viability, HPNE, Data2 [4]: 112.11; Cell viability, HPNE, Data3 [4]: 102.93; Average cell viability, HUVEC [5]: 102.10; Cell viability, HUVEC, Data1 [5]: 102.10; Cell viability, HUVEC, Data2 [5]: 88.93; Cell viability, HUVEC, Data3 [5]: 115.27 |
